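Test compounds were applied to cells in 96-well plates for 48 hours at 5 doses. TGI is the concentration that stops growth completely.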
Legend:
Assay in all cases: NCI tumour cell line growth inhibition, 48 h
786-0 renal = tested on: 786-0 renal
A498 renal = tested on: A498 renal
A549 NSCLC = tested on: A549 NSCLC
ACHN renal = tested on: ACHN renal
BT-549 breast = tested on: BT-549 breast
CAKI-1 renal = tested on: CAKI-1 renal
CCRF-CEM leukemia = tested on: CCRF-CEM leukemia
COLO 205 colon = tested on: COLO 205 colon
DU-145 prostate = tested on: DU-145 prostate
EKVX NSCLC = tested on: EKVX NSCLC
HCT-116 colon = tested on: HCT-116 colon
HCT-15 colon = tested on: HCT-15 colon
HL-60(TB) leukemia = tested on: HL-60(TB) leukemia
HOP-62 NSCLC = tested on: HOP-62 NSCLC
HS 578T breast = tested on: HS 578T breast
HT29 colon = tested on: HT29 colon
IGROV1 ovarian = tested on: IGROV1 ovarian
K-562 leukemia = tested on: K-562 leukemia
KM12 colon = tested on: KM12 colon
LOX IMVI melanoma = tested on: LOX IMVI melanoma
M14 melanoma = tested on: M14 melanoma
MCF7 breast = tested on: MCF7 breast
MDA-MB-231 breast = tested on: MDA-MB-231 breast
MDA-MB-435 = tested on: MDA-MB-435
MDA-N = tested on: MDA-N
MOLT-4 leukemia = tested on: MOLT-4 leukemia
NCI-H226 lung = tested on: NCI-H226 lung
NCI-H23 lung = tested on: NCI-H23 lung
NCI-H460 lung = tested on: NCI-H460 lung
NCI-H522 lung = tested on: NCI-H522 lung
NCI/ADR-RES ovarian = tested on: NCI/ADR-RES ovarian
OVCAR-3 ovarian = tested on: OVCAR-3 ovarian
OVCAR-4 ovarian = tested on: OVCAR-4 ovarian
OVCAR-5 ovarian = tested on: OVCAR-5 ovarian
OVCAR-8 ovarian = tested on: OVCAR-8 ovarian
PC-3 prostate = tested on: PC-3 prostate
RPMI-8226 leukemia = tested on: RPMI-8226 leukemia
RXF 393 renal = tested on: RXF 393 renal
SF-268 CNS = tested on: SF-268 CNS
SF-295 CNS = tested on: SF-295 CNS
SF-539 CNS = tested on: SF-539 CNS
SK-MEL-2 melanoma = tested on: SK-MEL-2 melanoma
SK-MEL-28 melanoma = tested on: SK-MEL-28 melanoma
SK-MEL-5 melanoma = tested on: SK-MEL-5 melanoma
SK-OV-3 ovarian = tested on: SK-OV-3 ovarian
SN12C renal = tested on: SN12C renal
SNB-19 CNS = tested on: SNB-19 CNS
SNB-75 CNS = tested on: SNB-75 CNS
SW-620 colon = tested on: SW-620 colon
T-47D breast = tested on: T-47D breast
TK-10 renal = tested on: TK-10 renal
U251 CNS = tested on: U251 CNS
UACC-257 melanoma = tested on: UACC-257 melanoma
UACC-62 melanoma = tested on: UACC-62 melanoma
HCC-2998 colon = tested on: HCC-2998 colon
HOP-92 NSCLC = tested on: HOP-92 NSCLC
MALME-3M melanoma = tested on: MALME-3M melanoma
UO-31 renal = tested on: UO-31 renal

CCOP(=O)(/C=C/n1ccc(N)nc1=O)OCC
TGI (786-0 renal): > 100 µM
TGI (A498 renal): > 100 µM
TGI (A549 NSCLC): > 100 µM
TGI (ACHN renal): > 100 µM
TGI (BT-549 breast): > 100 µM
TGI (CAKI-1 renal): > 100 µM
TGI (CCRF-CEM leukemia): > 100 µM
TGI (COLO 205 colon): > 100 µM
TGI (DU-145 prostate): > 100 µM
TGI (EKVX NSCLC): > 100 µM
TGI (HCT-116 colon): > 100 µM
TGI (HCT-15 colon): > 100 µM
TGI (HL-60(TB) leukemia): > 100 µM
TGI (HOP-62 NSCLC): > 100 µM
TGI (HS 578T breast): > 100 µM
TGI (HT29 colon): > 100 µM
TGI (IGROV1 ovarian): > 100 µM
TGI (K-562 leukemia): > 100 µM
TGI (KM12 colon): > 100 µM
TGI (LOX IMVI melanoma): > 100 µM
TGI (M14 melanoma): > 100 µM
TGI (MCF7 breast): > 100 µM
TGI (MDA-MB-231 breast): > 100 µM
TGI (MDA-MB-435): > 100 µM
TGI (MDA-N): > 100 µM
TGI (MOLT-4 leukemia): > 100 µM
TGI (NCI-H226 lung): > 100 µM
TGI (NCI-H23 lung): > 100 µM
TGI (NCI-H460 lung): > 100 µM
TGI (NCI-H522 lung): > 100 µM
TGI (NCI/ADR-RES ovarian): > 100 µM
TGI (OVCAR-3 ovarian): > 100 µM
TGI (OVCAR-4 ovarian): > 100 µM
TGI (OVCAR-5 ovarian): > 100 µM
TGI (OVCAR-8 ovarian): > 100 µM
TGI (PC-3 prostate): > 100 µM
TGI (RPMI-8226 leukemia): > 100 µM
TGI (RXF 393 renal): > 100 µM
TGI (SF-268 CNS): > 100 µM
TGI (SF-295 CNS): > 100 µM
TGI (SF-539 CNS): > 100 µM
TGI (SK-MEL-2 melanoma): > 100 µM
TGI (SK-MEL-28 melanoma): > 100 µM
TGI (SK-MEL-5 melanoma): > 100 µM
TGI (SK-OV-3 ovarian): > 100 µM
TGI (SN12C renal): > 100 µM
TGI (SNB-19 CNS): > 100 µM
TGI (SNB-75 CNS): > 100 µM
TGI (SW-620 colon): > 100 µM
TGI (T-47D breast): > 100 µM
TGI (TK-10 renal): > 100 µM
TGI (U251 CNS): > 100 µM
TGI (UACC-257 melanoma): > 100 µM
TGI (UACC-62 melanoma): > 100 µM

c1ccc([Si](OCCN2CC2)(c2ccccc2)c2ccccc2)cc1
TGI (786-0 renal): 27.2 µM
TGI (A549 NSCLC): 24.1 µM
TGI (ACHN renal): 27.9 µM
TGI (BT-549 breast): 31.5 µM
TGI (CAKI-1 renal): 44.8 µM
TGI (CCRF-CEM leukemia): 49.5 µM
TGI (COLO 205 colon): 24.7 µM
TGI (DU-145 prostate): 27.5 µM
TGI (EKVX NSCLC): 25.4 µM
TGI (HCC-2998 colon): 26.4 µM
TGI (HCT-116 colon): 27.7 µM
TGI (HCT-15 colon): 21.9 µM
TGI (HL-60(TB) leukemia): 50.8 µM
TGI (HOP-62 NSCLC): 30 µM
TGI (HOP-92 NSCLC): 18.4 µM
TGI (HS 578T breast): 24.9 µM
TGI (HT29 colon): 27 µM
TGI (IGROV1 ovarian): 25.5 µM
TGI (K-562 leukemia): 26.8 µM
TGI (KM12 colon): 35.2 µM
TGI (LOX IMVI melanoma): 27.6 µM
TGI (M14 melanoma): 29.3 µM
TGI (MALME-3M melanoma): 31.3 µM
TGI (MCF7 breast): 31.8 µM
TGI (MDA-MB-231 breast): 28 µM
TGI (MDA-MB-435): 26.7 µM
TGI (MDA-N): 28.1 µM
TGI (MOLT-4 leukemia): 36.3 µM
TGI (NCI-H226 lung): 29.8 µM
TGI (NCI-H23 lung): 29 µM
TGI (NCI-H460 lung): 25 µM
TGI (NCI-H522 lung): 25.5 µM
TGI (NCI/ADR-RES ovarian): 28.1 µM
TGI (OVCAR-3 ovarian): 31.3 µM
TGI (OVCAR-4 ovarian): 22.7 µM
TGI (OVCAR-5 ovarian): 27.7 µM
TGI (OVCAR-8 ovarian): 33.1 µM
TGI (PC-3 prostate): 26.3 µM
TGI (RPMI-8226 leukemia): 36.9 µM
TGI (RXF 393 renal): 19.2 µM
TGI (SF-268 CNS): 23 µM
TGI (SF-295 CNS): 27.4 µM
TGI (SF-539 CNS): 26.9 µM
TGI (SK-MEL-2 melanoma): 18.4 µM
TGI (SK-MEL-5 melanoma): 29.2 µM
TGI (SK-OV-3 ovarian): 27.5 µM
TGI (SN12C renal): 27.3 µM
TGI (SNB-19 CNS): 16 µM
TGI (SW-620 colon): 27.8 µM
TGI (T-47D breast): 39.9 µM
TGI (TK-10 renal): 29.1 µM
TGI (U251 CNS): 27 µM
TGI (UACC-257 melanoma): 33.2 µM
TGI (UACC-62 melanoma): 27.2 µM
TGI (UO-31 renal): 28.4 µM

CCN(CC)CCCNc1[nH]ncc2cc3c(nc4ccccc43)c(C)c12
TGI (786-0 renal): 17.3 µM
TGI (A498 renal): 28.7 µM
TGI (A549 NSCLC): 26.7 µM
TGI (ACHN renal): 21.9 µM
TGI (BT-549 breast): 32.7 µM
TGI (CAKI-1 renal): > 100 µM
TGI (CCRF-CEM leukemia): 21.3 µM
TGI (COLO 205 colon): 23.4 µM
TGI (DU-145 prostate): 24.3 µM
TGI (EKVX NSCLC): 23.5 µM
TGI (HCC-2998 colon): 23.2 µM
TGI (HCT-116 colon): 17.4 µM
TGI (HCT-15 colon): 30 µM
TGI (HL-60(TB) leukemia): 27.1 µM
TGI (HOP-62 NSCLC): 42.2 µM
TGI (HS 578T breast): 29.2 µM
TGI (HT29 colon): 15.8 µM
TGI (IGROV1 ovarian): 15.7 µM
TGI (K-562 leukemia): > 100 µM
TGI (KM12 colon): 18.5 µM
TGI (LOX IMVI melanoma): 20.6 µM
TGI (M14 melanoma): 52.3 µM
TGI (MALME-3M melanoma): 31.4 µM
TGI (MCF7 breast): 38.4 µM
TGI (MDA-MB-231 breast): 19.4 µM
TGI (MDA-MB-435): 36.1 µM
TGI (MDA-N): 30.8 µM
TGI (MOLT-4 leukemia): 5.43 µM
TGI (NCI-H226 lung): 25.3 µM
TGI (NCI-H23 lung): 28 µM
TGI (NCI-H460 lung): 18.1 µM
TGI (NCI-H522 lung): 16.3 µM
TGI (NCI/ADR-RES ovarian): > 100 µM
TGI (OVCAR-3 ovarian): 28.6 µM
TGI (OVCAR-5 ovarian): 50.4 µM
TGI (OVCAR-8 ovarian): 24.5 µM
TGI (PC-3 prostate): 25.5 µM
TGI (RPMI-8226 leukemia): 31.3 µM
TGI (SF-268 CNS): 20.6 µM
TGI (SF-295 CNS): 32.2 µM
TGI (SF-539 CNS): 34.1 µM
TGI (SK-MEL-2 melanoma): > 100 µM
TGI (SK-MEL-28 melanoma): 32.5 µM
TGI (SK-MEL-5 melanoma): 38 µM
TGI (SK-OV-3 ovarian): 34.3 µM
TGI (SN12C renal): 19.9 µM
TGI (SNB-19 CNS): 27.5 µM
TGI (SNB-75 CNS): 26.4 µM
TGI (SW-620 colon): 17.4 µM
TGI (T-47D breast): 29.4 µM
TGI (TK-10 renal): 36.2 µM
TGI (U251 CNS): 24.4 µM
TGI (UACC-257 melanoma): 29.5 µM
TGI (UACC-62 melanoma): 29.4 µM
TGI (UO-31 renal): 24.5 µM
